Source: ChEMBL document CHEMBL5550171, “Poly (ADP-ribose) polymerase (PARP) inhibitors as anticancer agents: An outlook on clinical progress, synthetic strategies, biological activity, and structure-activity relationship” (Eur J Med Chem, 2024)

What was measured:
MDA-MB-231 [1] = assay: Antiproliferative activity against human MDA-MB-231 cells assessed as reduction in cell viability after 24 hrs by CCK8 assay; type: functional, cell-based; conditions: MDA-MB-231, 24 h
[2] = target: T1, Protein cereblon/Poly [ADP-ribose] polymerase 1 (Homo sapiens, UniProt P09874+Q96SW2); assay: PROTAC activity at CRBN/PARP1 in human MDA-MB-231 cells assessed as […]; type: cell-based
Target sequence in this assay (P09874 whole entry): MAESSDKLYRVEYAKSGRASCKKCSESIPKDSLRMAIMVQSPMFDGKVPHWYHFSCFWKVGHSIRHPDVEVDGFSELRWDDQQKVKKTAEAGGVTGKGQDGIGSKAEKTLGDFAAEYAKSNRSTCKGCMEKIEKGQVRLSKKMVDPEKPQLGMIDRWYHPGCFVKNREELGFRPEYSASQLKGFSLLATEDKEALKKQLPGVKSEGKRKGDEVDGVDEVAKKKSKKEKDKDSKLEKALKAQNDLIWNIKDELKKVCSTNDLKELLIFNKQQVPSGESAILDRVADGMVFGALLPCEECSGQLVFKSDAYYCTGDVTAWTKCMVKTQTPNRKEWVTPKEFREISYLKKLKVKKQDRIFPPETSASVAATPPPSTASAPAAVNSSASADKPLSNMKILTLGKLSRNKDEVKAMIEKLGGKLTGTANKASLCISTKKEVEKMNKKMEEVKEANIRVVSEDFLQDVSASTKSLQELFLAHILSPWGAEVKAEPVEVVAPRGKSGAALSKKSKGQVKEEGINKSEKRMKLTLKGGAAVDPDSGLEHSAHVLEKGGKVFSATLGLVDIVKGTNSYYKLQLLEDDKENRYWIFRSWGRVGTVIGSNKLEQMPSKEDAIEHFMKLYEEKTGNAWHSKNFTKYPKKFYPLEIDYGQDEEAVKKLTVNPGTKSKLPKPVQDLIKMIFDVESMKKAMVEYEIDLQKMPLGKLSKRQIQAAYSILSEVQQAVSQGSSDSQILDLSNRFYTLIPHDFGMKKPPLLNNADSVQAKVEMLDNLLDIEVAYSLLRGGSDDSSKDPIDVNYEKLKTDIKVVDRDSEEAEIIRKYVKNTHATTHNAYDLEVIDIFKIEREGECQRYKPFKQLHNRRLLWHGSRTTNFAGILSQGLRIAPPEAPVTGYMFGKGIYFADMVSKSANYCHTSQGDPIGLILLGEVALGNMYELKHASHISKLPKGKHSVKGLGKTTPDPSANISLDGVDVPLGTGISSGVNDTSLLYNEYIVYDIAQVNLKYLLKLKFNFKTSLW
Target sequence in this assay (Q96SW2 whole entry): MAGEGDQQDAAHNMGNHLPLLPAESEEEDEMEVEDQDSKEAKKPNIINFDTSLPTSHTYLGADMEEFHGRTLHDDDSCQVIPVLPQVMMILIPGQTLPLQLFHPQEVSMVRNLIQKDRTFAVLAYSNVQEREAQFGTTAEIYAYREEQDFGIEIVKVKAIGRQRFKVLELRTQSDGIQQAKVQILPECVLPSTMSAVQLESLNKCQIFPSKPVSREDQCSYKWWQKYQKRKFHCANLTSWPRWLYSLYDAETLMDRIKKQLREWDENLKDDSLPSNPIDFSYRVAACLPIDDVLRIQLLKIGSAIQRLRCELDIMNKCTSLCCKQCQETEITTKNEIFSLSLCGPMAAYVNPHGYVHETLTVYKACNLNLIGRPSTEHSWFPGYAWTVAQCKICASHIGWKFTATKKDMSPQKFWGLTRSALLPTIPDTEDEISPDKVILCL

[3] = target: T1, Protein cereblon/Poly [ADP-ribose] polymerase 1; assay: PROTAC activity at CRBN/PARP1 in human MDA-MB-231 cells assessed as induction of PARP1 degradation at 0.1 uM relative to control; type: cell-based
Target sequence in this assay (P09874 2-1014 limits assumed): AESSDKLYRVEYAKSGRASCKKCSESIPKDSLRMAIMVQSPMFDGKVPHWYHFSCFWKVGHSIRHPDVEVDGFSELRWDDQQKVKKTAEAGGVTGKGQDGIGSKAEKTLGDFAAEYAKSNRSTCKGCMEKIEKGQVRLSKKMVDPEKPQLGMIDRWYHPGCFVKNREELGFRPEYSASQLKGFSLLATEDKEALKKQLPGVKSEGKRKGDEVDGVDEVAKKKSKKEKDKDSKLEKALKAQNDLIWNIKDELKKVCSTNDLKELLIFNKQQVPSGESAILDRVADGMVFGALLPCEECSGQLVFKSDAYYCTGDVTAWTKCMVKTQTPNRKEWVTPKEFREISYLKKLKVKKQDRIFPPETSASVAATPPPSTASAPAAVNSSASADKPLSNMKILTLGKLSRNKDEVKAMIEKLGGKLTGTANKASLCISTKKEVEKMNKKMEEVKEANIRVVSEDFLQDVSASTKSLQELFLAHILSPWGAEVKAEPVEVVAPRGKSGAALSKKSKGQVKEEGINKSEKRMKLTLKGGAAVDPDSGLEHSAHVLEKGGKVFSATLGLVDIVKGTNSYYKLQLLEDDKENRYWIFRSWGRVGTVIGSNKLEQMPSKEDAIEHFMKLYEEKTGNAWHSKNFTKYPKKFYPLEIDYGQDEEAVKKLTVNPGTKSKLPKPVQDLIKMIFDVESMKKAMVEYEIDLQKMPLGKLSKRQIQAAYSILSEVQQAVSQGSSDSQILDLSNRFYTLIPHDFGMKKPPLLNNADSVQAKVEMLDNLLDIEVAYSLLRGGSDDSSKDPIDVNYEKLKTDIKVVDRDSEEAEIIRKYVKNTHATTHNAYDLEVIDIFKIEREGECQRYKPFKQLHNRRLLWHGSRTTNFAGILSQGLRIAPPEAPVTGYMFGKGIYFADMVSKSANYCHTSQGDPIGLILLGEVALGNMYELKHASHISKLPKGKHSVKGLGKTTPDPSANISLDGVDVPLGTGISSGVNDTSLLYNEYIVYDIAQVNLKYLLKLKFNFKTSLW
Target sequence in this assay (Q96SW2 whole entry partner): as the sequence (Q96SW2 whole entry) above

MDA-MB-231 [4] = assay: Antitumor activity against human MDA-MB-231 cells xenografted in mouse assessed as tumor growth inhibition at 40 mg/kg, po relative to control; type: functional; conditions: read-out: TGI
MDA-MB-231 [5] = assay: Antiproliferative activity against human MDA-MB-231 cells assessed as reduction in cell viability at 1 uM after 24 hrs by CCK8 assay relative to control; type: functional
MDA-MB-231 [6] = assay: Antiproliferative activity against human MDA-MB-231 cells assessed as reduction in cell viability at 10 uM after 24 hrs by CCK8 assay relative to control; type: functional
A549 [7] = assay: Induction of apoptosis in human A549 cells at 2 uM incubated for 48 hrs by Annexin V-FITC/PI staining based flow cytometry analysis relative to control; type: functional
A549 [8] = assay: Induction of apoptosis in human A549 cells at 1 uM incubated for 48 hrs by Annexin V-FITC/PI staining based flow cytometry analysis relative to control; type: functional
A549 [9] = assay: Antiproliferative activity against human A549 cells assessed as reduction in cell growth measured for 72 hrs by MTT assay; type: functional, cell-based; conditions: A549, 72 h
A549 [10] = assay: Induction of apoptosis in human A549 cells at 4 uM incubated for 48 hrs by Annexin V-FITC/PI staining based flow cytometry analysis relative to control; type: functional

IC50 (MDA-MB-231 [1])	DC50 [2]	Activity [3]	IC50 (A549 [9])	Compound	inhibition in vivo at 40 mg/kg (MDA-MB-231 [4])	Activity (MDA-MB-231 [5])	Activity (MDA-MB-231 [6])	Activity (A549 [7])	Activity (A549 [8])	Activity (A549 [10])
1040 nM	25.2 nM	88%	–	NC(=O)c1cccc2cn(-c3ccc(C4CCCN(CCC5CCN(CCC6CCN(c7ccc8c(c7)C(=O)N(C7CCC(=O)NC7=O)C8=O)CC6)CC5)C4)cc3)nc12 (stereo not given)	71.4%	65.84%	11.78%	–	–	–
–	–	–	1950 nM	O=C1CCN(Cc2cn(-c3ccccc3F)nn2)C2(CCCCC2)c2ccccc21	–	–	–	10.9%	8%	19%
